The values that follow come from ChEMBL document CHEMBL1128931, “Synthesis and biological evaluation of pyrido[2,3-b]pyrazine and pyrido[2,3-b]pyrazine-n-oxide as selective glycine antagonists” (Bioorg Med Chem Lett, 1996).

The target in experiment [1] is Glutamate receptor ionotropic, NMDA 1 (Rattus norvegicus, UniProt P35439). The experiment can be described thus: In vitro binding affinity for glycine site on the NMDA receptor.
Experiment [2] has as its system Rattus norvegicus. The experiment can be described thus: Compound was evaluated in vivo for antagonistic activity against glycine site in NMDA induced convulsion model in rats after ip administration. Format: functional.
Experiment [3] deals with Rattus norvegicus. The experiment can be described thus: Compound was evaluated in vivo for antagonistic activity against glycine site in NMDA induced convulsion model in rats after iv administration. Format: functional.

For the compound `Cc1nc2nc(O)c(O)nc2cc1I`, affinity in experiment [1] was put at a Ki of 0.468 µM.
Regarding `Cc1c(Br)cnc2nc(O)c(O)nc12`, the affinity in experiment [1] corresponds to a Ki of 1.58 µM.
With `Cc1c(Cl)cnc2nc(O)c(O)nc12`, the Ki in experiment [1] was 2.88 µM. Further, the 50% effect level with Rattus norvegicus [2] (ED50) was put at a dose of 20 mg/kg.
In experiment [1], `[O-][n+]1c(Cl)ccc2nc(O)c(O)nc21` had a Ki of 4.68 µM.
As to `Cc1c(Cl)c(Cl)[n+]([O-])c2nc(O)c(O)nc12`, in experiment [1], the Ki was 3.16 µM. The ED50 with Rattus norvegicus [2] came to 30 mg/kg.
As to `CCCc1nc2nc(O)c(O)nc2c(C)c1Cl`, the Ki in experiment [1] is 2.75 µM.
Compound `Oc1nc2cc(C(F)(F)F)cnc2nc1O` showed a Ki in experiment [1] of 0.501 µM. Besides, the values for the median effective dose (ED50) in the experiment on Rattus norvegicus [2] and with Rattus norvegicus [3] were 27 mg/kg and 13 mg/kg, respectively.
In experiment [1], `Oc1nc2cc(C(F)(F)F)c(Cl)nc2nc1O` gave a Ki of 0.427 µM. Moreover, the 50% effect level in the experiment with Rattus norvegicus [3] (ED50) was put at a dose of 15 mg/kg.
`Cc1c(Cl)c[n+]([O-])c2nc(O)c(O)nc12` gave a Ki in experiment [1] of 0.372 µM. Moreover, the figures for the ED50 with Rattus norvegicus [2] and in the experiment with Rattus norvegicus [3] were 7 mg/kg and 3 mg/kg, respectively.
`Oc1nc2cc(Br)c(Cl)nc2nc1O`: the ED50 was 100 mg/kg in the experiment on Rattus norvegicus [2] and 20 mg/kg with Rattus norvegicus [3].
In turn, `Oc1nc2cc(Cl)c(Cl)nc2nc1O` gave a Ki in experiment [1] of 0.186 µM. In addition, the ED50 turned out to be 41 mg/kg in the experiment with Rattus norvegicus [2] and 0.7 mg/kg in the experiment with Rattus norvegicus [3].
With `[O-][n+]1c(Cl)c(I)cc2nc(O)c(O)nc21`, the Ki in experiment [1] is 0.209 µM. This lies in the sub-micromolar range.
In the case of `Cc1c(Br)c[n+]([O-])c2nc(O)c(O)nc12`, in experiment [1], the affinity, expressed as Ki, was 0.537 µM. Besides, the ED50 was found to be 9 mg/kg with Rattus norvegicus [2] and 5 mg/kg in the experiment on Rattus norvegicus [3].
In turn, `Oc1nc2cc(I)c(Cl)nc2nc1O` gave a Ki in experiment [1] of 0.204 µM.
In experiment [1], `Cc1c(Br)c(Cl)[n+]([O-])c2nc(O)c(O)nc12` showed a Ki of 3.02 µM.
The same measure, in the same setting: to `Cc1c(I)cc2nc(O)c(O)nc2[n+]1[O-]` belongs 0.224 µM.
The same measure, in the same setting: to `CCCc1nc2nc(O)c(O)nc2cc1Cl` belongs 1.51 µM.
Still for that read-out and setting: to `Cc1c(Cl)c(Cl)nc2nc(O)c(O)nc12` belongs 0.191 µM; to `Oc1nc2nc(Cl)c(Cl)c(Cl)c2nc1O`, 0.11 µM.
As for `Cc1c(Br)c(Cl)nc2nc(O)c(O)nc12`, the inhibition constant (Ki) in experiment [1] is 0.282 µM. The compound also gave a 50% effective dose (ED50) with Rattus norvegicus [3] of 10 mg/kg.
In experiment [1], `Cc1c(I)cnc2nc(O)c(O)nc12` had a Ki of 1.78 µM.
Same read-out and setting: as for `Cc1nc2nc(O)c(O)nc2c(C)c1Cl`, the figure is 0.813 µM.
In experiment [1], `Cc1c(I)c[n+]([O-])c2nc(O)c(O)nc12` gave a Ki of 0.912 µM. This compound also showed an ED50 with Rattus norvegicus [2] of 30 mg/kg.
Compound `Oc1nc2ncc(C(F)(F)F)c(Cl)c2nc1O` had a Ki in experiment [1] of 1.58 µM. In other words, the single-digit micromolar range.
Turning to `[O-][n+]1cc(C(F)(F)F)c(Cl)c2nc(O)c(O)nc21`, the affinity in experiment [1] corresponds to a Ki of 3.72 µM. In the experiment with Rattus norvegicus [2], the ED50 was 50 mg/kg.
As to `[O-][n+]1cc(C(F)(F)F)cc2nc(O)c(O)nc21`, the inhibition constant (Ki) in experiment [1] is 0.427 µM. Also, the 50% effect level in the experiment with Rattus norvegicus [3] (ED50) was put at a dose of 15 mg/kg.
`[O-][n+]1c(Cl)c(Br)cc2nc(O)c(O)nc21` gave a Ki in experiment [1] of 0.112 µM. Besides, the ED50 came out at 45 mg/kg in the experiment on Rattus norvegicus [2] and 18 mg/kg in the experiment with Rattus norvegicus [3].
In turn, `[O-][n+]1cc(Cl)cc2nc(O)c(O)nc21` showed an inhibitory constant (Ki) in experiment [1] of 0.513 µM.
In turn, `[O-][n+]1cc(I)cc2nc(O)c(O)nc21` showed a Ki in experiment [1] of 0.741 µM. The 50% effect level with Rattus norvegicus [2] (ED50) was put at a dose of 21 mg/kg.
As to `Oc1nc2ccc(Cl)nc2nc1O`, the inhibition constant (Ki) in experiment [1] was 6.17 µM.
The same measure, in the same setting: to `CCCc1c(Cl)cc2nc(O)c(O)nc2[n+]1[O-]` belongs 0.457 µM.
For the compound `[O-][n+]1c(Cl)c(Cl)cc2nc(O)c(O)nc21`, affinity in experiment [1] was put at a Ki of 0.112 µM. The ED50 in the experiment with Rattus norvegicus [2] turned out to be 24 mg/kg; in the experiment on Rattus norvegicus [3], 14 mg/kg.
For `[O-][n+]1c(Cl)c(C(F)(F)F)cc2nc(O)c(O)nc21` the same measures were 0.513 µM, 60 mg/kg and 30 mg/kg.
